Experiments:
[1] = Two-minute power test (time trial) on cycle ergometer after sixty-minute high-intensity exercise session, double-blind crossover study; type: in vivo, human; settings: for Absolute mean power output change / Relative mean power output change: Table 4, mean (±SD); for Mean Power (W/kg BW): difference between day 1 and day 3, 10 g/day, mean ± SD
Description: A high-intensity exercise protocol was designed as a double-blind, crossover study to assess the influence of D-Ribose adaptation to physical stress. Specifically, D-Ribose and a control (Dextrose) were administered on separate subjects at a dosage of ten grams per day (10 g/day). A variety of physiological parameters were measured in the subjects administered D-Ribose (DR) supplementation (i.e., the DR subjects) versus the subjects administered Dextrose (DEX) supplementation (i.e., the DEX subjects).
The subjects consisted of twenty-six (26) healthy individual (10 females, 16 males). Each subject was randomly categorized as a DR subject or a DEX subject for the administration of supplementation. Furthermore, each subject was required to maintain his or her normal diet during the study, as well as performing his or her normal daily activities without performing any additional separate exercise sessions not part of the study protocol.
To test D-ribose for adaptation, the twenty-six (26) adult subjects were further divided into two subgroups based on their fitness level (i.e., peak oxygen uptake (VO2 max) results. The first subgroup comprised subjects with higher VO2 max results (i.e., the “Fit Subgroup”) and the second subgroup comprised subjects with lower VO2 max results (i.e., the “Unfit Subgroup”). The Unfit Subgroup consisted of six (6) females and seven (7) males. The average age of the Unfit Subgroup was 27.7±3.4 years and the average peak VO2 of the Unfit Subgroup was 39.9±4.1 mL/kg/min. The Fit Subgroup consisted of four (4) females and nine (9) males. The average age of the Fit Subgroup was 27.6±3.5 year and the average peak VO2 of the Fit Subgroup was 52.2±4.3 mL/kg/min.
On the load days (i.e., the two (2) days prior to the exercise sessions), DR subjects consumed five grams (5 g) of DR mixed with either their food or in a self-selected beverage with lunch and an additional five grams (5 g) with dinner (i.e., between three to eight hours apart), while DEX subjects consumed five grams (5 g) of DEX mixed with either their food or in a self-selected beverage with lunch and an additional five grams (5 g) with dinner (i.e., between three to eight hours apart).
On the exercise session days (i.e., three (3) days following the load days), DR subjects ingested a standardized pre-exercise snack containing five grams (5 g) of DR at two (2) hours before the exercise session and five grams (5 g) of DR following the exercise session but before leaving the laboratory (i.e., within one hour following the exercise session), while DEX subjects ingested a standardized pre-exercise snack containing five grams (5 g) of DEX at two (2) hours before the exercise session and five grams (5 g) of DEX following the exercise session but before leaving the laboratory (i.e., within one hour following the exercise session). For both DR subjects and DEX subjects, the standardized snacks were self-selected but were based on the subjects' normal dietary habits. The snacks were consistent from day to day and consisted of one hundred seventy grams (170 g) of yogurt and two granola bars, along with the designated supplement. Subjects were asked to record their diets so that there would be consistency throughout the testing period. Following an exercise session, each subject ingested the final daily dose of five grams (5 g) before leaving the laboratory. Subjects also ingested two hundred milliliters (200 ml) of water at twenty (20) and forty (40) minutes of exercise to minimize the effects of dehydration, which can occur during periods of high-intensity exercise.
Each subject was randomly assigned to be a DR subject (for administration of DR supplementation) or a DEX subject (for administration of DEX supplementation). Apart from the supplementation provided to and consumed by the subject, the treatment protocols were identical. The specific treatment protocol (i.e., administration of supplementation and exercise sessions) is detailed in Table 1 below: […]

[2] = Blood glucose levels during exercise; type: in vivo, human; settings: mean (SD)
Description: A high-intensity exercise protocol was designed as a double-blind, crossover study to assess the influence of D-Ribose adaptation to physical stress. Specifically, D-Ribose and a control (Dextrose) were administered on separate subjects at a dosage of ten grams per day (10 g/day). A variety of physiological parameters were measured in the subjects administered D-Ribose (DR) supplementation (i.e., the DR subjects) versus the subjects administered Dextrose (DEX) supplementation (i.e., the DEX subjects). To test D-ribose for adaptation, the twenty-six (26) adult subjects were further divided into two subgroups based on their fitness level (i.e., peak oxygen uptake (VO2 max) results. The first subgroup comprised subjects with higher VO2 max results (i.e., the “Fit Subgroup”) and the second subgroup comprised subjects with lower VO2 max results (i.e., the “Unfit Subgroup”). The Unfit Subgroup consisted of six (6) females and seven (7) males. The average age of the Unfit Subgroup was 27.7±3.4 years and the average peak VO2 of the Unfit Subgroup was 39.9±4.1 mL/kg/min. The Fit Subgroup consisted of four (4) females and nine (9) males. The average age of the Fit Subgroup was 27.6±3.5 year and the average peak VO2 of the Fit Subgroup was 52.2±4.3 mL/kg/min. Physiologic parameters were measured and hydration was provided to the subjects during the exercise session. The same protocol for testing and hydration protocol was followed for both DR subjects and DEX subjects. Blood samples were drawn from each subject via a venipuncture technique at the following time periods: • Ten (10) minutes before commencement of exercise; • Twenty (20) minutes after the commencement of and during exercise; • Forty (40) minutes after the commencement of and during exercise; • Sixty (60) minutes after the commencement of and during exercise; and • Twenty-four (24) hours after the conclusion of exercise (twenty-five (25) hours after the commencement of exercise). Blood glucose was measured at all of the above time points except at twenty-four (24) hours post-exercise. Creatine kinase and BUN levels were measured at the pre-exercise (−10 min.) point during the three (3) days of exercise and twenty-four (24) hours post-exercise following the third (last) exercise session. Heart rate was recorded using a Polar HR monitor. Blood glucose levels were measured using a Bayer glucose monitor. Blood lactate levels were measured by an AccuSport Lactate Analyzer. Creatine kinase and BUN were measured utilizing an Abaxis Piccolo analyzer. Power data from the time trial performance test was assessed with the Sports Medicine Industries (SMI) software package.

Compound | Average change in absolute peak power from Day 1 to Day 3 ([1]; Fit Subgroup) | Average change in relative peak power from Day 1 to Day 3 ([1]; Fit Subgroup) | Absolute mean power output change ([1]; Fit Subgroup) | Relative mean power output change ([1]; Fit Subgroup) | Mean Power (W/kg BW) ([1]; Fit Subgroup) | Average change in absolute peak power from Day 1 to Day 3 ([1]; Unfit Subgroup) | Average change in relative peak power from Day 1 to Day 3 ([1]; Unfit Subgroup) | Absolute mean power output change ([1]; Unfit Subgroup) | Relative mean power output change ([1]; Unfit Subgroup) | Mean Power (W/kg BW) ([1]; Unfit Subgroup) | Blood glucose level during exercise ([2]; Fit Subgroup, 19.5) | Blood glucose level during exercise ([2]; Fit Subgroup, 39.5) | Blood glucose level during exercise ([2]; Fit Subgroup, 59.5) | Blood glucose level during exercise ([2]; Unfit Subgroup, 19.5) | Blood glucose level during exercise ([2]; Unfit Subgroup, 39.5) | Blood glucose level during exercise ([2]; Unfit Subgroup, 59.5) | Relative and absolute mean power outputs, DR versus DEX treatments ([1]; Fit Subgroup) | Difference between DR and DEX in the change of absolute mean power ([1]; Unfit Subgroup, p=0.01) | Improvement in relative mean power over DEX ([1]; Unfit Subgroup, p=0.04)
O=C[C@H](O)[C@@H](O)[C@H](O)[C@H](O)CO [DEX, Dextrose, reference compound] | 3.31±25.8 W | −0.02+0.37 W/kg BW | 8.2 (27.7) W | 0.07 (0.33) W/kg BW | 0.07 ± 0.33 W/kg BW | −10.8±33.0 W | −0.09+0.51 W/kg BW | −8.9 (22.4) W | −0.09 (0.29) W/kg BW | −0.09 ± 0.31 W/kg BW | 4.0 (0.6) mM/L | 4.1 (0.7) mM/L | 4.0 (0.6) mM/L | 4.0 (0.5) mM/L | 4.0 (0.5) mM/L | 3.9 (0.6) mM/L | – | – | –
O=C[C@H](O)[C@H](O)[C@H](O)CO [DR, D-Ribose] | 6.2±28.6 W | 0.15±0.41 W/kg BW | 2.3 (17.1) W | 0.08 (0.39) W/kg BW | 0.08 ± 0.31 W/kg BW | 26.8±40.8 W | 0.33+0.52 W/kg BW | 13.2 (24.2) W | 0.17 (0.32) W/kg BW | 0.20 ± 0.32 W/kg BW | 3.8 (0.5) mM/L | 4.0 (0.5) mM/L | 3.9 (0.5) mM/L | 4.0 (0.6) mM/L | 4.0 (0.6) mM/L | 4.1 (0.7) mM/L | not different | 245% | 288%
